Results on nine compounds are retold here after patent publication EP1060182B1, “NOVEL PRODRUGS FOR PHOSPHORUS-CONTAINING COMPOUNDS” (Metabasis Therapeutics, Inc., priority 1998, dated 1999).

Entries after “also recorded” stand apart in the source; their conditions may differ.

In general, IC50 refers to the midpoint of a concentration-inhibition curve. Read a low IC50 as higher potency. By inhibition is commonly meant the drop in the measured response relative to a control, in per cent.

The conditions of data set [1]: in rodents; cited from earlier work.
In a further data set the test system is Rat liver microsomes. The conditions noted are these: linear over a 5 hour reaction period, equimolar products. Here is the method:
1.1 was evaluated for microsome-catalyzed conversion to parent compound 2-{5-[9-(2-Phenylethyl)-8-adeninyl]} furanylphosphonic acid and phenol, an expected byproduct of the reaction.
Methods: Rat liver microsomes were prepared as described in Example I. Reaction conditions, sample processing, and HPLC analysis were as described in Example D. Phenol was identified by HPLC by its retention time and spectral characteristics relative to an authentic standard.

Data set [2] has as its system glucose production in isolated rat hepatocytes. As to the kind of experiment: Inhibition of glucose production in rat hepatocytes (Example J). The conditions noted are these: 1 hour, lactate 10 mM / pyruvate 1 mM. The format is cell-based. The method, then: Select prodrugs of FBPase inhibitors were tested for inhibition of glucose production in isolated rat hepatocytes.
After a 10 minute equilibration period, lactate and pyruvate were added to 10 mM and 1 mM concentrations, respectively. Addition of gluconeogenic substrates was immediately followed by that of appropriate concentrations of test compound. After 1 hour, an aliquot (0.25 ml) was removed, transferred to an Eppendorf tube and centrifuged. The supernatant (50 µl) was then assayed for glucose content using a Glucose Oxidase kit (Sigma Chemical Co.) as per the manufacturer's instructions.

Data set [3] in a line: Stability in plasma (Example C). The format is in vitro ADME, rat. The conditions noted are these: 37°C, 5-8 hours, reverse phase HPLC.
Method: Methods: Compounds were incubated in plasma at 37°C, and aliqouts removed at appropriate time points over the course of 5-8 hours. The aliquots were extracted with 1.5 volumes of methanol and clarified by centrifugation. Supernatants were then evaporated to dryness and the residues reconstituted with 100 µL of isotonic saline and then analyzed by reverse phase HPLC.
Data set [4] has as its system microsomal fraction of human liver. As to the kind of experiment: Activation by human liver microsomes (Example E). The format is in vitro ADME. The conditions noted are these: 250 µM prodrug, 37°C, NADPH-generating system. Here is the method:
7.1, 1.3, and 30.1 were tested for conversion to their respective parent compounds by the microsomal fraction of human liver.
(Liver microsomes are vesicles of endoplasmic reticulum, rich in cytochrome P450 enzymes.)

The subject of data set [5] is isolated rat hepatocytes. As to the kind of experiment: Activation to parent compound in isolated rat hepatocytes (Example I). The format is cell-based. The conditions noted are these: 100 µM prodrug, peak within 15 minutes of addition. From the text: An ODS column was used for analysis. […] Detection was at 310 nm.
In data set [6] the test system is microsomal fraction of rat liver. The data set can be described thus: Activation by rat liver microsomes (Example D). The conditions noted are these: 100 µM 7.1, 37°C; in the presence, but not in the absence of, NADP+; rate linearly dependent on microsomal protein. The format is in vitro ADME. The method, then:
The pellet was resuspended in homogenization buffer and recentrifuged.
Reactions were carried out at 37°C.
Reactions are monitored spectrophotometrically at 340 nm.

For data set [7], the system named is isolated rat hepatocytes. The data set can be described thus: Active drug metabolites formed after prodrug activation in isolated rat hepatocytes (Example K). The conditions noted are these: for Product concentration nmoles/g cells (PMEApp): time point 4h.
Method: Methods: Hepatocytes were prepared and incubated as described in Example I. 28.4 and 30.1 and their respective parent compounds, PMEA and ara-AMP, were dissolved in DMSO or methanol to yield 10 mM stock solutions, and then diluted into the cell suspension to yield a final concentration of 100 µM. At appropriate time points over the course of 2-4 hours, aliquots of the cell suspension were removed and spun through a silicon/mineral oil layer into 10% perchloric acid. The cell extracts in the acid layers were neutralized by the addition of 0.3 volumes of 3M KOH/3M KHCO3, and the extract was then centrifuged, filtered (0.2 micron filter) and loaded onto an anion exchange HPLC column equilibrated with 70% A (10 mM ammonium phosphate pH 3.5, 6% ETOH) and 30% B (1 M ammonium phosphate pH 3.5, 6% ETOH). Ara-ATP and PMEApp were eluted with a gradient to 80% B. Detection was at 254 nm.
Data set [8] in a line: Hepatic PMEA-diphosphate and plasma PMEA after intravenous dosing (Example P). The conditions noted are these: 10 mg/kg PMEA equivalents i.v. The format is in vivo, rat.
The test system of a further data set is recombinant CYP3A4. As to the kind of experiment: Activation by recombinant CYP3A4 (Example G). The format is in vitro ADME. The conditions noted are these: 28.4 at 100 µM, 37°C, NADPH dependent, linear for 30 minutes. The method, then: Activation of 30.1 and 28.4 was evaluated in reactions containing microsomes from baculovirus-infected insect cells co-expressing recombinant CYP3A4 and cytochrome p450 reductase (Panvera Corp., Madison, WI).
Methods: Reaction mixture composition was similar to that described in Example E. Reactions were terminated by addition of methanol to a final concentration of 60%, and products typically analyzed by HPLC with use of a YMC reverse phase C8 column (250 x 4.6 mm). […] The effluent was monitored at 254 nm.

The conditions of data set [9]: intravenous administration to human patients; cited from earlier work.
The conditions of data set [10]: i.v., over 2.5 minutes; cited from earlier work.
A short description of data set [11]: Liver ara-ATP and plasma/urine ara-hypoxanthine after intravenous dosing (Example O). The format is in vivo, rat. Here is the method:
The temporal profile of ara-hypoxanthine and ara-ATP generation following intravenous administration of 30.1 and free ara-AMP was compared in the rat.
Method: 30.1 and ara-AMP (Sigma) were administered to normal, fasted rats intravenously (in saline) via tail vein catheters. At appropriate time points following drug a administration, animals were lightly anesthetized with halothane. The peritoneal cavity was then opened and a blood sample was obtained from the abdominal vena cava and the liver freeze-clamped and excised.
The blood samples were heparinized and plasma was prepared. Plasma samples (100 µL) were mixed with 4 N perchloric acid (40 µL), vortexed, and then clarified by centrifugation. The supernatants were analyzed for ara-hypoxanthine by HPLC with use of a Beckman Ultrasphere ODS column (4.6 x 150 mm). The column was eluted with 100 mM acetic acid at a flow rate of 1.0 mL/min. The eluent was monitored by UV absorbance at 254 nm.
Livers were immediately homogenized in 3 volumes of 10% perchloric acid (w/w), and the extracts clarified by centrifugation at 2500 x g (5 minutes). The resulting supernatants were removed and neutralized with 0.3 volumes of 3M KOH/ 3M KHCO3. The neutralized liver extracts were then spun in an Eppendorf microfuge at 10,000 rpm (20 minutes, 4°C). The supernatants were analyzed for ara-ATP content by reverse phase HPLC (HP1050) using a Whatman Partisphere SA column (4.6 x 125 mm). A gradient from 0.3M ammonium phosphate buffer pH 3.5 to 0.8M ammonium phosphate pH 3.5 was run (1 ml/minute flow rate).
Renal excretion of araH following i.v. administration of 30.1 or ara-AMP was determined as described in Example Q.

As to `CC(C)(C)C(=O)OCOP(=O)(OCOC(=O)C(C)(C)C)C(CCCc1cccc(Oc2ccccc2)c1)S(=O)(=O)O` (centres unmarked) [BMS 188494], the oral bioavailability in data set [1] is reported as < 2%.
With `Nc1ncnc2c1nc(-c1ccc(P3(=O)OC4CC(O)CC(C4)O3)o1)n2CCc1ccccc1` (centres unmarked) [Compound 1.1, 6-Amino-8-(5'-hydroxyl-1',3'-cyclohexyl)phosphonofuranyl-9-phenethyl purine], in the data set on Rat liver microsomes, the “rate of generation of 2-{5-[9-(2-Phenylethyl)-8-adeninyl]}furanylphosphonic acid and phenol” value is 15 pmoles /mg microsomal protein/minute. Besides, the IC50 in [2] is 77 µM. The “metabolism / degradation in fresh rat plasma” value in data set [3] is “not degraded; also recorded: no evidence of metabolism”.
On to `CC(C)(C)Cn1c(-c2ccc(P3(=O)OC4CC(O)CC(C4)O3)o2)nc2c(N)ncnc21` (centres unmarked) [Compound 1.2, 6-Amino-8-(5'-hydroxyl-1',3'-cyclohexyl)phosphonofuranyl-9-neopentyl purine], for which, in [3], the “metabolism / degradation in fresh rat plasma” value is “not degraded”.
As to `CC(C)Cn1c(-c2ccc(P3(=O)OCC(CO)CO3)o2)nc2ccc(Cl)cc21` (centres unmarked) [Compound 7.1, 6-Chloro-1-isobutyl-2-{5-[2'-(hydroxymethyl)-propan-1',3'-yl]phosphono-2-furanyl}benzimidazole], the inhibition at 100 µM in data set [2] (Rattus norvegicus, Hepatocyte, read-out: % inhibition @ 100 µM, 100 µM) is 65%. In data set [2] (Rattus norvegicus, Hepatocyte), this compound displayed an IC50 of 48 µM. For the same compound, in data set [4], the “rate of formation of parent compound” value is reported as 0.85 nmoles/mg microsomal protein/minute. Besides, the “peak intrahepatocyte levels of 6-Chloro-1-isobutyl-2-(2-Phosphono-5-furanyl)benzimidazole” value with isolated rat hepatocytes [5] is given as “approximately 700 nmoles/g cells”. In addition, in data set [6], the “conversion to parent compound” value is “converted to parent compound”.
`CC(=O)OCC1COP(=O)(c2ccc(-c3nc4c(N)ncnc4n3CC(C)(C)C)o2)OC1` (centres unmarked) [Compound 7.5, 6-Amino-9-neopentyl-8-{5-[2'-(acetoxymethyl)-propan-1',3'-yl]phosphono-2-furanyl}purine] displayed an IC50 in [2] of 13 µM.
As to `Nc1ncnc2c1ncn2CCOCP1(=O)OCCC(c2ccncc2)O1` (centres unmarked) [Compound 28.4, 9-[2-(1-(4-Pyridyl)-1,3-propylphosphonomethoxy)ethyl]adenine], the “Product concentration nmoles/g cells (PMEApp)” value with isolated rat hepatocytes [7] (Dose 100 µM) is 169 nmoles/g cells. In data set [8], the PMEA-diphosphate in liver result is recorded as “readily detectable levels” and the “Plasma PMEA levels relative to bisPOM-PMEA” value is listed as “greater than 10 fold lower”. In addition, the “rate of formation of PMEA” value in the data set on recombinant CYP3A4 is recorded as 3.1 ± 0.1 nmoles/ min/ nmole CYP3A4.
As to `Nc1ncnc2c1ncn2CCOCP(=O)(O)O` [PMEA, 9-(2-phosphonylmethoxyethyl) adenine, reference compound], in the data set on isolated rat hepatocytes [7] (Dose 250 µM), the “Product concentration nmoles/g cells (PMEApp)” value was determined as 120 nmoles/g cells.
For the compound `Nc1ncnc2c1ncn2[C@@H]1O[C@H](COP(=O)(O)O)[C@@H](O)[C@@H]1O` [araAMP, reference compound], the “Product concentration nmoles/g cells (ara-ATP)” value in the data set on isolated rat hepatocytes [7] (Dose 100 µM, time point 2h) is on record as 212±0.6 nmoles/g cells. For the same compound, in data set [9], the ara-AMP in plasma entry is “not detected in plasma”. Besides, the “drop of plasma ara-AMP levels” value in data set [10] is “greater than 90%”. Moreover, the “persistence of ara-hypoxanthine in plasma” value in data set [11] (ara-AMP i.v. at equivalent doses) is 8 h. In [11] (i.v., 30.1 at 10 and 3 mg/kg, ara-AMP at equivalent doses), the “ara-hypoxanthine (araH) in plasma” value was “µmolar levels”. The “plasma half-life of free ara-AMP relative to 30.1” value in [11] (judged by inability to detect the compound in plasma) is “considerably shorter”.
For `CC(C)(C)C(=O)OCOP(=O)(COCCn1cnc2c(N)ncnc21)OCOC(=O)C(C)(C)C` [bisPOM-PMEA, reference compound], in [8], the PMEA-diphosphate in liver entry was “readily detectable levels”.
